Results: patent publication US20220305003A1, “METHODS OF TREATING CANCER WITH AN INHIBITOR OF ZNF827” (CHILDREN'S MEDICAL RESEARCH INSTITUTE, priority 2019, published 2022)

Each molecule was assayed on panel of 660 cell lines (assay: Drug sensitivity (Sanger GDSC IC50) versus ZNF827 gene expression). Conditions: natural log of the IC50 from Sanger GDSC v17.3; low log2(TPM) <1 vs normal; Nemenyi test, adjusted p-value<0.05.
Type: cell-based
Method: ZNF827 gene expression for the 660 cell lines was plotted on a histogram and grouped by gene expression level, represented as log2(TPM), into “low” (<1), “normal” (>1, <5) and “high” (>5). […] The Nemenyi statistical test was used to test for significant differences between “low” and “normal” ZNF827 expression groups for drug sensitivity for each compound. P-values were then corrected for multiple testing using FDR correction. […] All statistical analysis was performed in R (version 3.6.0), using the “stats” (version 3.6.0) and “PMCMR” (version 4.3) libraries.

Row | SMILES | drug sensitivity in cell lines with low ZNF827 compared to cell lines with normal ZNF827 expression
1 | O=c1[nH]c2ccccc2n1C1CCN(Cc2ccc(-c3nc4cc5[nH]cnc5cc4nc3-c3ccccc3)cc2)CC1 [AKT inhibitor VIII] | Increased sensitivity
2 | Cc1ccc(NC(=O)c2cccc(C(C)(C)C#N)c2)cc1Nc1ccc2ncn(C)c(=O)c2c1 [AZ628] | Increased sensitivity
3 | C=C(c1ccc(C(=O)O)cc1)c1cc2c(cc1C)C(C)(C)CCC2(C)C [Bexarotene] | Increased sensitivity
4 | O=C(NOCC1CC1)c1ccc(F)c(F)c1Nc1ccc(I)cc1Cl [CI-1040] | Increased sensitivity
5 | Cc1ccc(-c2c(C(=O)CF)n(CCCO)c3ncnc(N)c23)cc1 [FMK] | Increased sensitivity
6 | Nc1[nH]nc2nnc(-c3c(-c4ccccc4)nn4ccccc34)cc12 [FR-180204] | Increased sensitivity
7 | Cn1cc(/C=C2\C(=O)Nc3cccnc32)c2ccccc21 [GW441756] | Increased sensitivity
8 | CCNC(=O)C[C@@H]1N=C(c2ccc(Cl)cc2)c2cc(OC)ccc2-n2c(C)nnc21 [I-BET-762] | Increased sensitivity
9 | Cc1ccc(NC(=O)c2ccc(CN3CCN(C)CC3)cc2)cc1Nc1nccc(-c2cccnc2)n1 [Imatinib] | Increased sensitivity
10 | O=C(N[C@@H](COc1ccc2[nH]c(=O)[nH]c2c1)c1ccccc1)c1cccn(Cc2ccc(F)c(F)c2)c1=O [KIN001-244] | Increased sensitivity
11 | COc1cc(C(=O)NC2CCN(C)CC2)ccc1Nc1ncc2c(n1)N(C1CCCC1)C(C)CC(=O)N2C (stereo not shown) [NPK76-II-72-1] | Increased sensitivity
12 | Cc1ccc(C(=O)Nc2cccc(C(F)(F)F)c2)cc1Nc1nc(-c2cccnc2)nc2c1cnn2C [NVP-BHG712] | Increased sensitivity
13 | Cc1cn(-c2cc(NC(=O)c3ccc(C)c(Nc4nccc(-c5cccnc5)n4)c3)cc(C(F)(F)F)c2)cn1 [Nilotinib] | Increased sensitivity
14 | O=C(Nc1ccc(OC(F)(F)F)cc1)c1sccc1NCc1ccnc2ccccc12 [OSI-930] | Increased sensitivity
15 | O=C(NOC[C@H](O)CO)c1ccc(F)c(F)c1Nc1ccc(I)cc1F [PD0325901] | Increased sensitivity
16 | [H]/N=C(/N)N/C(=N/[H])NCCc1ccccc1 [Phenformin] | Increased sensitivity
17 | CC1(C)CC(=O)c2c(C(F)(F)F)nn(-c3ccc(C(N)=O)c(N[C@H]4CC[C@H](O)CC4)c3)c2C1 [SNX-2112] | Increased sensitivity
18 | CCN(CC)CCNC(=O)c1c(C)[nH]c(/C=C2\C(=O)Nc3ccc(F)cc32)c1C.O=C(O)C[C@H](O)C(=O)O [Sunitib] | Increased sensitivity
19 | O=S(=O)(c1ccccc1)N(CC(F)(F)F)c1ccc(C(O)(C(F)(F)F)C(F)(F)F)cc1 [T0901317] | Increased sensitivity
20 | CCc1nc(-c2cccc(C)c2)c(-c2ccnc(NC(=O)c3ccccc3)c2)s1 [TAK-715] | Increased sensitivity
21 | CN(C)C/C=C/C(=O)Nc1ccc(C(=O)Nc2cccc(Nc3ncc(Cl)c(-c4c[nH]c5ccccc45)n3)c2)cc1 [THZ-2-102-1] | Increased sensitivity
22 | CC/C(=C(\c1ccccc1)c1ccc(OCCN(C)C)cc1)c1ccccc1 [Tamoxifen] | Increased sensitivity
